pIC50: −log10 of the molar value. Several values for one entry are separate records, joined by “and”; a condition that tells them apart may be missing. Equal values may be shown once.

This experiment deals with SARS-CoV-2 Main Protease (SARS-CoV-2) (UniProt P0DTD1).
For orientation: pIC50 means −log10 of the IC50, conventionally taken in molar units. A low value points to a high IC50. `Cc1ccc(N(C(=O)c2cocn2)C(C(=O)NCCc2cccc(F)c2)c2cccnc2)cc1` (stereo not drawn) had a negative-log IC50 (pIC50) of 4.30.

Take `CN(C)c1ccc(C(Cc2ccsc2)C(=O)Nn2cnc3ccccc32)cc1` (stereo not drawn): the pIC50 was below 4.00. In turn, `Cc1ccc(Nc2cc(Cl)cc(CC(=O)Nc3cncc4ccccc34)c2)cc1I` showed a negative-log IC50 (pIC50) of 5.68. As for `COc1cc(Nc2cc(Cl)cc(CC(=O)Nc3cncc4ccccc34)c2)nc(OC)n1`, the figure is 5.66; as for `Cc1nc2ccc(NCc3cnc4ccccn34)cn2n1`, below 4.00.

With `CNC(=O)CN1CC2(CCN(c3cncc4cccc(Cl)c34)C2=O)c2cc(Cl)ccc2C1=O` (stereo not drawn), the pIC50 was 5.78. For the compound `COC1(CS(=O)(=O)N2Cc3ccc(Cl)cc3C3(CCN(c4cncc5ccc(OCCN(C)C)cc45)C3=O)C2)CC1` (stereo not drawn), the pIC50 is 6.74. As for `O=C(NCCc1cccc(F)c1)C(c1cccnc1)N(C(=O)c1ccco1)c1ccc(C2CCCC2)cc1` (stereo not drawn), the figure is 6.55; as for `O=C(NC[C@@]1(C(=O)Nc2cncc3ccccc23)CCOc2ccc(Cl)cc21)[C@]1(O)CCSC1` (stereo in doubt), 5.71. For `O=C(Cc1cncc2ccccc12)N1CCOc2ccc(Cl)cc21`, the pIC50 was 5.22. As for `O=C(Cc1cc(Cl)cc(N2CCN(C(=O)C3CC3)CC2)c1)Nc1cncc2ccccc12`, the figure is 5.70; as for `CNC(=O)CN1Cc2ccc(Cl)cc2C2(CCN(c3cncc4ccc(OC)cc34)C2=O)C1` (stereo not drawn), 6.82.

In turn, `O=C(Cc1cc(Cl)cc(Nc2ccc(Br)c3ccccc23)c1)Nc1cncc2ccccc12` gave a negative logarithm of the IC50 (pIC50) of 5.70.

Compound `O=C(O)[C@@H](c1ccccc1)N1Cc2ccccc2C1=O` (stereo in doubt) had a negative-log IC50 (pIC50) of 5.75. As for `COc1c(O[C@@H]2O[C@H](CO)[C@@H](O)[C@H](O)[C@H]2O)cc2oc(-c3ccc(O)cc3)cc(=O)c2c1O` (stereo in doubt), the figure is below 4.00; as for `O=C(Cc1cc(Cl)cc(Nc2ccc(-c3ccccc3)cc2)c1)Nc1cncc2ccccc12`, 5.69. `O=C1CC(N2CC(C(=O)Nc3cncc4ccccc34)c3cc(Cl)ccc3C2=O)CN1` (stereo not drawn) had a negative-log IC50 (pIC50) of 6.17. As to `Cc1nc2ccc(N(C(=O)c3cnc[nH]3)C(C(=O)NCCc3cccc(F)c3)c3cccnc3)cc2o1` (stereo not drawn), the negative-log IC50 (pIC50) was below 4.00.

As for `CC1(CS(=O)(=O)N2Cc3ccc(Cl)cc3[C@H](C(=O)Nc3cncc4ccccc34)C2)CC1` (stereo in doubt), the negative-log IC50 (pIC50) was > 7.30 and 7.07 and 7.34. `CNC(=O)CN1Cc2ccc(Cl)cc2C2(CCN(c3cncc4c3CCCC4)C2=O)C1` (stereo not drawn) showed a pIC50 of 6.59. `O=C(Cc1cc(Cl)cc(Nc2ncnc(Cl)c2Cl)c1)Nc1cncc2ccccc12` gave a pIC50 of 5.69.

The compound `CC(C)(C)c1ccc(N(C(=O)c2ccco2)C(C(=O)NCCc2cccc(F)c2)c2cc(=O)[nH]c3ccccc23)cc1` (stereo not drawn) had a pIC50 of 5.64. Turning to `O=C(Cc1cc(Cl)cc(Nc2ccc(Br)c(Cl)c2Cl)c1)Nc1cncc2ccccc12`, the pIC50 was 5.62. The figure for `CCOc1ccc(N(C(=O)c2cnc[nH]2)C(C(=O)NCCc2cccc(F)c2)c2cccnc2)cn1` (stereo not drawn) is below 4.00; for `C=CC(=O)NCC(=O)N(Cc1ccccc1O)C[C@@H]1CCCO1` (stereo in doubt) it is below 4.00.

Compound `Cc1ccncc1NC(=O)C(C)c1cccc(C#N)c1` (stereo not drawn) showed a pIC50 of 4.26. As for `COc1ccc(Cl)c(Nc2cc(Cl)cc(CC(=O)Nc3cncc4ccccc34)c2)c1`, the figure is 5.77; as for `COc1ccc([C@H](C)Nc2cc(Cl)cc(CC(=O)Nc3cncc4ccccc34)c2)cc1` (stereo in doubt), 5.33. As for `COc1ccn2c(NC(=O)Cc3cccc(Cl)c3)cnc2c1`, the figure is below 4.00; as for `CCc1cc(F)ccc1-c1cc(Cl)cc(CC(=O)Nc2cnccc2C)c1`, 4.50.

Take `Cc1ccc(S(=O)(=O)NCC(=O)N2CCC(NS(N)(=O)=O)CC2)cc1`: the pIC50 is below 4.00. The figure for `CC[C@]1(c2ccc(Nc3cc(Cl)cc(CC(=O)Nc4cncc5ccccc45)c3)cc2)CCC(=O)NC1=O` (stereo in doubt) is 5.72. Consider `O=C(Cc1cc(Cl)cc(Nc2cc(Cl)cc(Cl)c2O)c1)Nc1cncc2ccccc12`, for which the negative logarithm of the IC50 (pIC50) was 5.04.

Values taken from the COVID Moonshot data (paper PMC7615835).
